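Compound exposure: 48 hours, 5 concentrations, 96-well plates. TGI: total growth inhibition.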
How the values were obtained:
Experiment in all cases: NCI-60 cell line screen, 48 h
NCI-H226 lung = system: NCI-H226 lung
EKVX NSCLC = system: EKVX NSCLC
MOLT-4 leukemia = system: MOLT-4 leukemia
OVCAR-3 ovarian = system: OVCAR-3 ovarian
TK-10 renal = system: TK-10 renal
NCI-H23 lung = system: NCI-H23 lung
M14 melanoma = system: M14 melanoma
COLO 205 colon = system: COLO 205 colon
UACC-257 melanoma = system: UACC-257 melanoma
LOX IMVI melanoma = system: LOX IMVI melanoma
HL-60(TB) leukemia = system: HL-60(TB) leukemia
M19-MEL melanoma = system: M19-MEL melanoma
SW-620 colon = system: SW-620 colon
DMS 114 small cell lung = system: DMS 114 small cell lung
RXF 393 renal = system: RXF 393 renal
DLD-1 colon = system: DLD-1 colon
NCI-H460 lung = system: NCI-H460 lung
T-47D breast = system: T-47D breast
NCI/ADR-RES ovarian = system: NCI/ADR-RES ovarian
BT-549 breast = system: BT-549 breast

In the case of `CC1(Cl)CC2C(CC1Sc1nnnn1-c1ccccc1)C2(C)C` (stereo unspecified), the TGI (NCI-H226 lung) is reported as > 100 µM, the TGI (EKVX NSCLC) is reported as > 100 µM and the TGI (MOLT-4 leukemia) is reported as > 100 µM. For the same compound, the TGI (OVCAR-3 ovarian) was > 100 µM, the TGI (TK-10 renal) was > 100 µM and the TGI (NCI-H23 lung) was > 100 µM. The TGI (M14 melanoma) was > 100 µM, the TGI (COLO 205 colon) was > 100 µM and the TGI (UACC-257 melanoma) was > 100 µM. For the same compound, the TGI (LOX IMVI melanoma) was > 100 µM, the TGI (HL-60(TB) leukemia) was 49.4 µM and the TGI (M19-MEL melanoma) was > 100 µM. The TGI (SW-620 colon) was > 100 µM, the TGI (DMS 114 small cell lung) was > 100 µM and the TGI (RXF 393 renal) was > 100 µM. The TGI (DLD-1 colon) was > 100 µM and the TGI (NCI-H460 lung) was > 100 µM.

`Clc1ccc(N=c2oc3ccccc3cc2-c2nc3ccccc3[nH]2)c(Cl)c1` was tested, and the TGI (EKVX NSCLC) was > 100 µM, the TGI (MOLT-4 leukemia) was > 100 µM and the TGI (OVCAR-3 ovarian) was > 100 µM. The TGI (TK-10 renal) was 69.9 µM, the TGI (T-47D breast) was > 100 µM and the TGI (NCI/ADR-RES ovarian) was > 100 µM. For the same compound, the TGI (NCI-H23 lung) was > 100 µM, the TGI (M14 melanoma) was > 100 µM and the TGI (BT-549 breast) was > 100 µM. For the same compound, the TGI (UACC-257 melanoma) was > 100 µM, the TGI (LOX IMVI melanoma) was > 100 µM and the TGI (HL-60(TB) leukemia) was > 100 µM. For the same compound, the TGI (SW-620 colon) was > 100 µM and the TGI (RXF 393 renal) was 41.7 µM.

Reference: PubChem BioAssay (NCI)
